According to patent US20080194616A1, “PYRIDOPYRIMIDINONE COMPOUNDS USEFUL IN TREATING SODIUM CHANNEL-MEDIATED DISEASES OR CONDITIONS” (Xenon Pharmaceuticals Inc., priority 2007, published 2008):
Where a name gives a salt, the structure may show the parent alone.

Tested on: sodium channel
Assay: Guanidine Influx Assay (In Vitro Assay)
Type: cell-based, human or rat
Settings: known cell line that expresses a sodium channel; read-out: IC50 Activity Level
Source text: This example describes an in vitro assay for testing and profiling test agents against human or rat sodium channels stably expressed in cells of either an endogenous or recombinant origin. The assay is also useful for determining the IC-50 of a sodium channel blocking compound. The assay is based on the guanidine flux assay described by Reddy, N. L., et al., J. Med. Chem. (1998), 41(17):3298-302.
The guanidine influx assay is a radiotracer flux assay used to determine ion flux activity of sodium channels in a high-throughput microplate-based format. The assay uses ^14C-guanidine hydrochloride in combination with various known sodium channel modulators, to assay the potency of test agents. Potency is determined by an IC-50 calculation. Selectivity is determined by comparing potency of the compound for the channel of interest to its potency against other sodium channels (also called ‘selectivity profiling’).
Each of the test agents is assayed against cells that express the channels of interest. Voltage gated sodium channels are either TTX sensitive or insensitive. This property is useful when evaluating the activities of a channel of interest when it resides in a mixed population with other sodium channels. The following Table 1 summarizes cell lines useful in screening for a certain channel activity in the presence or absence of TTX.
Cells expressing the channel of interest are grown according to the supplier or in the case of a recombinant cell in the presence of selective growth media such as G418 (Gibco/Invitrogen). The cells are disassociated from the culture dishes with an enzymatic solution (1×) Trypsin/EDTA (Gibco/Invitrogen) and analyzed for density and viability using haemocytometer (Neubauer). Disassociated cells are washed and resuspended in their culture media then plated into Scintiplates (Beckman Coulter Inc.) (approximately 100,000 cells/well) and incubated at 37° C./5% CO2. for 20-24 hours. After an extensive wash with Low sodium HEPES-buffered saline solution (LNHBSS) (150 mM Choline Chloride, […] (Sigma), 1 mM Calcium Chloride, 5 mM Potassium Chloride, 1 mM Magnesium Chloride, 10 mM Glucose) agents diluted with LNHBSS are added to each well. (Varying concentrations of test agent may be used). The activation/radiolabel mixture contains aconitine (Sigma), and ^14C-guanidine hydrochloride (ARC).
After loading the cells with test agent and activation/radiolabel mixture, the Scintiplates are incubated at ambient temperature. Following the incubation, the Scintplates are extensively washed with LNHBSS supplemented with guanidine (Sigma). The Scintiplates are dried and then counted using a Wallac MicroBeta TriLux (Perkin-Elmer Life Sciences). The ability of the test agent to block sodium channel activity is determined by comparing the amount of ^14C-guanidine present inside the cells expressing the different sodium channels.
IC-50 value of a test agent for a specific sodium channel may be determined using the above general method. IC-50 may be determined using a 3,8,10,12 or 16 point curve in duplicate or triplicate with a starting concentration of 1, 5 or 10 μM diluted serially with a final concentration reaching the sub-nanomolar, nanomolar and low micromolar ranges. Typically the mid-point concentration of test agent is set at 1 μM, and sequential concentrations of half dilutions greater or smaller are applied (e.g. 0.5 μM; […] and 0.25 μM; 10 μM and 0.125 μM; 20 μM etc.). The IC-50 curve is calculated using the 4 Parameter Logistic Model or Sigmoidal Dose-Response Model formula (fit=(A+((B−A)/(1+((C/x)̂D)))).

CCCOc1nc2ccccn2c(=O)c1-c1ccc(Cl)cc1 [Example 1.25, 2-propoxy-3-(4-chlorophenyl)-4H-pyrido[1,2-a]pyrimidin-4-one] and CCCCc1nc2ccccn2c(=O)c1-c1ccc(Cl)cc1 [Example 1.8, 2-butyl-3-(4-chlorophenyl)-4H-pyrido[1,2-a]pyrimidin-4-one] cannot be ordered by IC50: 1 to 10 µM for the first, no less than 10 µM for the second.

CCCCc1nc2ccc(C)cn2c(=O)c1-c1ccc(N[C@@H]2CCNC2)cc1 [Example 6.6, (R)-2-butyl-7-methyl-3-{4-[pyrrolidin-3-ylamino]phenyl}-4H-pyrido[1,2-a]pyrimidin-4-one hydrochloride] and CCCCc1nc2ccccn2c(=O)c1-c1ccc(NC2CCNC2)cc1 (stereo not shown) [Example 7, 2-butyl-3-(4-(pyrrolidin-3-ylamino)phenyl)-4H-pyrido[1,2-a]pyrimidin-4-one hydrochloride] cannot be ordered by IC50: no less than 10 µM for the first, no less than 10 µM for the second.

CCCCc1nc2ccccn2c(=O)c1-c1ccc(NC[C@@H]2CCCO2)cc1 [Example 3.28, (S)-2-butyl-3-(4-{[tetrahydrofuran-2-ylmethyl]amino}phenyl)-4H-pyrido[1,2-a]pyrimidin-4-one hydrochloride] and CCCCc1nc2ccccn2c(=O)c1-c1ccc(N[C@@H]2CCOC2)cc1 [Example 3.29, (R)-2-butyl-3-{4-[tetrahydrofuran-3-ylamino]phenyl}-4H-pyrido[1,2-a]pyrimidin-4-one hydrochloride] cannot be ordered by IC50: no less than 10 µM for the first, no less than 10 µM for the second.

CCCCc1nc2ccccn2c(=O)c1-c1ccc(N2CCOCC2)cc1 [Example 3.25, 2-butyl-3-(4-morpholin-4-ylphenyl)-4H-pyrido[1,2-a]pyrimidin-4-one] and CCCCc1nc2ccccn2c(=O)c1-c1ccc(N[C@H]2CCNC2)cc1 [Example 7.1, (S)-2-butyl-3-{4-[pyrrolidin-3-ylamino]phenyl}-4H-pyrido[1,2-a]pyrimidin-4-one hydrochloride] cannot be ordered by IC50: no less than 10 µM for the first, no less than 10 µM for the second.

CCCCc1nc2ccccn2c(=O)c1-c1ccc(NC2CCCNC2)cc1 (stereo not shown) [Example 6, 2-butyl-3-[4-(piperidin-3-ylamino)phenyl]-4H-pyrido[1,2-a]pyrimidin-4-one hydrochloride] and CCCCc1nc2ccccn2c(=O)c1-c1ccc(NC2CCNCC2)cc1 [Example 6.1, 2-butyl-3-[4-(piperidin-4-ylamino)phenyl]-4H-pyrido[1,2-a]pyrimidin-4-one hydrochloride] cannot be ordered by IC50: no less than 10 µM for the first, no less than 10 µM for the second.

CCCNc1nc2ccccn2c(=O)c1-c1ccc(NC2CCNC2)cc1 (stereo not shown) [Example 7.8, 2-(propylamino)-3-[4-(pyrrolidin-3-ylamino)phenyl]-4H-pyrido[1,2-a]pyrimidin-4-one hydrochloride] and CCc1nc2ccccn2c(=O)c1-c1ccc(N[C@@H]2CCNC2)cc1 [Example 6.4, (R)-2-ethyl-3-(4-(pyrrolidin-3-ylamino)phenyl)-4H-pyrido[1,2-a]pyrimidin-4-one hydrochloride] cannot be ordered by IC50: no less than 10 µM for the first, no less than 10 µM for the second.

CC(C)Nc1nc2ccccn2c(=O)c1-c1ccc(N[C@@H]2CCNC2)cc1 [Example 7.10, (R)-2-[(1-methylethyl)amino]-3-{4-[pyrrolidin-3-ylamino]phenyl}-4H-pyrido[1,2-a]pyrimidin-4-one hydrochloride] and CC(C)c1nc2ccccn2c(=O)c1-c1ccc(NC2CCNC2)cc1 (stereo not shown) [Example 7.5, 2-(1-methylethyl)-3-[4-(pyrrolidin-3-ylamino)phenyl]-4H-pyrido[1,2-a]pyrimidin-4-one hydrochloride] cannot be ordered by IC50: no less than 10 µM for the first, no less than 10 µM for the second.

O=c1c(-c2ccc(N[C@@H]3CCNC3)cc2)c(N2CCCC2)nc2ccccn12 [Example 7.11, (R)-2-pyrrolidin-1-yl-3-{4-[pyrrolidin-3-ylamino]phenyl}-4H-pyrido[1,2-a]pyrimidin-4-one hydrogen chloride] and Cc1nc2ccccn2c(=O)c1-c1ccc(N[C@@H]2CCNC2)cc1 [Example 6.3, (R)-2-methyl-3-(4-(pyrrolidin-3-ylamino)phenyl)-4H-pyrido[1,2-a]pyrimidin-4-one hydrochloride] cannot be ordered by IC50: no less than 10 µM for the first, no less than 10 µM for the second.

CCCCc1nc2ccccn2c(=O)c1-c1ccc(N[C@@H]2CCNC2)c(F)c1 [Example 7.2, (R)-2-butyl-3-{3-fluoro-4-[(pyrrolidin-3-ylamino]phenyl}-4H-pyrido[1,2-a]pyrimidin-4-one hydrochloride] and CCCCc1nc2ccccn2c(=O)c1-c1cccc(NC2CCNC2)c1 (stereo not shown) [Example 7.4, 2-butyl-3-[3-(pyrrolidin-3-ylamino)phenyl]-4H-pyrido[1,2-a]pyrimidin-4-one hydrochloride] cannot be ordered by IC50: no less than 10 µM for the first, no less than 10 µM for the second.

CCCCc1nc2ccccn2c(=O)c1-c1ccc2c(c1)CCN2 [Example 2, 2-butyl-3-(indolin-5-yl)-4H-pyrido[1,2-a]pyrimidin-4-one hydrochloride] and CCCCc1nc2ccc(Cl)cn2c(=O)c1-c1ccc(O)cc1 [Example 13, 2-butyl-7-chloro-3-(4-hydroxyphenyl)-4H-pyrido[1,2-a]pyrimidin-4-one] cannot be ordered by IC50: no less than 10 µM for the first, no less than 10 µM for the second.

CCCCc1nc2cc(C(F)(F)F)ccn2c(=O)c1-c1ccc(Cl)cc1 [Example 1.21, 2-butyl-3-(4-chlorophenyl)-8-(trifluoromethyl)-4H-pyrido[1,2-a]pyrimidin-4-one] and CCCCc1nc2c3ccccc3ccn2c(=O)c1-c1ccc(N[C@@H]2CCNC2)cc1 [Example 6.9, (R)-2-butyl-3-{4-[pyrrolidin-3-ylamino]phenyl}-4H-pyrimido[2,1-a]isoquinolin-4-one hydrochloride] cannot be ordered by IC50: no less than 10 µM for the first, no less than 10 µM for the second.

First: CC(C)CCc1nc2ccccn2c(=O)c1-c1ccc(N[C@@H]2CCNC2)cc1 [Example 7.6, (R)-2-isopentyl-3-(4-(pyrrolidin-3-ylamino)phenyl)-4H-pyrido[1,2-a]pyrimidin-4-one hydrochloride]
Second: O=c1c(-c2ccc(N[C@@H]3CCNC3)cc2)c(CCC2CC2)nc2ccccn12 [Example 7.7, (R)-2-(2-cyclopropylethyl)-3-(4-(pyrrolidin-3-ylamino)phenyl)-4H-pyrido[1,2-a]pyrimidin-4-one hydrochloride]
The IC50 of the first is higher: no less than 10 µM for the first, 0.1 to 1 µM for the second. The second is the more potent here.

COc1nc2ccccn2c(=O)c1-c1ccc(NC2CCNC2)cc1 (stereo not shown) [Example 9, 2-methoxy-3-[4-(pyrrolidin-3-ylamino)phenyl]-4H-pyrido[1,2-a]pyrimidin-4-one trifluoroacetate] gave an IC50 of no less than 10 µM.

Tested on: not given
Assay: not given
Settings: not given

First: CCCCc1nc2ccccn2c(=O)c1-c1ccc2[nH]ccc2c1 [Example 1.30, 2-butyl-3-(1H-indol-5-yl)-4H-pyrido[1,2-a]pyrimidin-4-one]
Second: CCCCc1nc2ccccn2c(=O)c1-c1ccc(OS(=O)(=O)C(F)(F)F)cc1 (as salt: methanesulfonate) [Example 12, 4-(2-butyl-4-oxo-4H-pyrido[1,2-a]pyrimidin-3-yl)phenyl trifluoromethanesulfonate]
The melting point of the first is higher: 132 to 135 °C for the first, 106 to 108 °C for the second.

Compared with Cc1nc2ccccn2c(=O)c1-c1ccc(N[C@@H]2CCNC2)cc1 (as salt: hydrochloride) [Example 6.3, (R)-2-methyl-3-(4-(pyrrolidin-3-ylamino)phenyl)-4H-pyrido[1,2-a]pyrimidin-4-one hydrochloride], CC(C)CCc1nc2ccccn2c(=O)c1-c1ccc(N[C@@H]2CCNC2)cc1 (as salt: hydrochloride) [Example 7.6, (R)-2-isopentyl-3-(4-(pyrrolidin-3-ylamino)phenyl)-4H-pyrido[1,2-a]pyrimidin-4-one hydrochloride] is higher in melting point: 149 to 158 °C for the first, 171 to 187 °C for the second.

In the case of CCCCc1nc2ccccn2c(=O)c1-c1ccc(N[C@@H]2CCNC2)cc1C (as salt: hydrochloride) [Example 7.3, (R)-2-butyl-3-{2-methyl-4-[pyrrolidin-3-ylamino]phenyl}-4H-pyrido[1,2-a]pyrimidin-4-one hydrochloride], the melting point is reported as 179 to 187 °C.

CCCCc1nc2ccccn2c(=O)c1-c1ccc(NC2CCNCC2)cc1 (as salt: hydrochloride) [Example 6.1, 2-butyl-3-[4-(piperidin-4-ylamino)phenyl]-4H-pyrido[1,2-a]pyrimidin-4-one hydrochloride] showed a melting point greater than 220 °C.
